In the NIST ThermoML archive (doi:10.1021/je7005538):
“And” between values parts separate entries of the source, which are not always exact repeats. Identical values can stand only once.

Assay: xn = mol fraction of the nth substance listed
Conditions: Fluid (supercritical or subcritical phases), Vibrating tube method

Cc1c(C)c2c(c(C)c1O)CC[C@@](C)(CCC[C@H](C)CCC[C@H](C)CCCC(C)C)O2 [(+)-α-tocopherol] + O=C=O
mass density
Conditions | x1 = 0.0004 | x1 = 0.00042 | x1 = 0.00043 | x1 = 0.0005 | x1 = 0.00059 | x1 = 0.00074 | x1 = 0.00081
308.15 K, 10000 kPa | 720.4 kg/m3 | 718.9 kg/m3 and 720.9 kg/m3 | 720.6 kg/m3 | 720.3 kg/m3 | 720.2 kg/m3 | 721.2 kg/m3 | 720.9 kg/m3
308.15 K, 15000 kPa | 817.8 kg/m3 | 816.9 kg/m3 and 818.1 kg/m3 | 818.2 kg/m3 | 817.9 kg/m3 | 817.8 kg/m3 | 818.6 kg/m3 | 818.7 kg/m3
308.15 K, 20000 kPa | 867.2 kg/m3 | 866.7 kg/m3 and 867.6 kg/m3 | 867.5 kg/m3 | 867.4 kg/m3 | 867.3 kg/m3 | 868 kg/m3 | 868.2 kg/m3
308.15 K, 30000 kPa | 929.5 kg/m3 | 929.3 kg/m3 and 929.6 kg/m3 | 929.6 kg/m3 | 929.6 kg/m3 | 929.6 kg/m3 | 930 kg/m3 | 930.1 kg/m3
308.15 K, 40000 kPa | 971.9 kg/m3 | 971.9 kg/m3 and 972 kg/m3 | 972 kg/m3 | 972 kg/m3 | 972 kg/m3 | 972.2 kg/m3 | 972.3 kg/m3
313.15 K, 10000 kPa | 639 kg/m3 | 639 kg/m3 and 638.8 kg/m3 | 638.7 kg/m3 | 639.4 kg/m3 | 638.9 kg/m3 | 640 kg/m3 | 639.8 kg/m3
313.15 K, 15000 kPa | 782.3 kg/m3 | 782.6 kg/m3 and 782.3 kg/m3 | 782.5 kg/m3 | 782.8 kg/m3 | 782.4 kg/m3 | 783.3 kg/m3 | 783.1 kg/m3
313.15 K, 20000 kPa | 841 kg/m3 | 841.2 kg/m3 and 840.9 kg/m3 | 841.2 kg/m3 | 841.3 kg/m3 | 841.1 kg/m3 | 841.7 kg/m3 | 841.6 kg/m3
313.15 K, 30000 kPa | 910.2 kg/m3 | 910.3 kg/m3 and 910.1 kg/m3 | 910.3 kg/m3 | 910.4 kg/m3 | 910.3 kg/m3 | 910.7 kg/m3 | 910.6 kg/m3
313.15 K, 40000 kPa | 955.9 kg/m3 | 955.9 kg/m3 and 955.7 kg/m3 | 955.9 kg/m3 | 955.9 kg/m3 | 956 kg/m3 | 956.1 kg/m3 | 956 kg/m3
323.15 K, 10000 kPa | 398.5 kg/m3 | 398.3 kg/m3 and 398.5 kg/m3 | 398.3 kg/m3 | 398.4 kg/m3 | 398.8 kg/m3 | 398.9 kg/m3 | 398.7 kg/m3
323.15 K, 15000 kPa | 703.6 kg/m3 | 703.1 kg/m3 and 703.4 kg/m3 | 703.4 kg/m3 | 703.5 kg/m3 | 703.4 kg/m3 | 704.1 kg/m3 | 704.1 kg/m3
323.15 K, 20000 kPa | 786.2 kg/m3 | 785.8 kg/m3 and 786 kg/m3 | 786 kg/m3 | 786 kg/m3 | 786 kg/m3 | 786.6 kg/m3 | 786.6 kg/m3
323.15 K, 30000 kPa | 871.2 kg/m3 | 870.9 kg/m3 and 871.1 kg/m3 | 871 kg/m3 | 871.1 kg/m3 | 871.1 kg/m3 | 871.5 kg/m3 | 871.6 kg/m3
323.15 K, 40000 kPa | 923.3 kg/m3 | 923.1 kg/m3 and 923.3 kg/m3 | 923.3 kg/m3 | 923.3 kg/m3 | 923.2 kg/m3 | 923.6 kg/m3 | 923.6 kg/m3
333.15 K, 10000 kPa | 297.2 kg/m3 | 297.1 kg/m3 and 296.8 kg/m3 | 296.9 kg/m3 | 297.1 kg/m3 | 297.3 kg/m3 | 297.7 kg/m3 | 297.7 kg/m3
333.15 K, 15000 kPa | 608.6 kg/m3 | 608.9 kg/m3 and 608.8 kg/m3 | 608.7 kg/m3 | 608.7 kg/m3 | 609.3 kg/m3 | 609.3 kg/m3 | 609.4 kg/m3
333.15 K, 20000 kPa | 725.7 kg/m3 | 725.6 kg/m3 and 725.5 kg/m3 | 725.5 kg/m3 | 725.7 kg/m3 | 725.8 kg/m3 | 726.1 kg/m3 | 726.2 kg/m3
333.15 K, 30000 kPa | 830.3 kg/m3 | 830.3 kg/m3 and 830.2 kg/m3 | 830.2 kg/m3 | 830.3 kg/m3 | 830.5 kg/m3 | 830.7 kg/m3 | 830.7 kg/m3
333.15 K, 40000 kPa | 890.2 kg/m3 | 890.2 kg/m3 and 890.1 kg/m3 | 890.1 kg/m3 | 890.1 kg/m3 | 890.3 kg/m3 | 890.5 kg/m3 | 890.5 kg/m3
